ChEMBL document CHEMBL5512674, “Novel Acyl Thiourea-Based Hydrophobic Tagging Degraders Exert Potent Anti-Influenza Activity through Two Distinct Endonuclease Polymerase Acidic-Targeted Degradation Pathways” (J Med Chem, 2024)
Active and inactive are the calls of the source. The calls are words filed in the database; no cut-off is given here.

Legend:
[1] = Selectivity index, ratio of CC50 for cytotoxicity against human HEK293T cells to EC50 for anti-influenza activity against Influenza A virus A/WSN/33(H1N1) infected in HEK293T cells assessed as reduction in virus-induced cytopathic effect; assay type: toxicity, cell-based; conditions: read-out: Ratio CC50/EC50
[2] = Intrinsic clearance in human liver microsomes preincubated for 5 mins followed by NADPH addition and measured for 45 mins by LC-MS analysis; assay type: ADME, Microsome; conditions: time 50 min, read-out: CLH
Influenza B virus = assay: Anti-influenza activity against Influenza B virus Yamagata/16/88 infected in HEK293T cells assessed as reduction in virus-induced cytopathic effect incubated for 48 hrs by CCK-8 assay; assay type: functional, organism-based; conditions: Yamagata/16/88, HEK-293T
[3] = Hepatic extraction ratio in mouse liver microsomes preincubated for 5 mins followed by NADPH addition and measured for 45 mins by LC-MS analysis; assay type: ADME, Microsome; conditions: time 50 min, read-out: ERH
[4] = Half life in human plasma by LC-MS/MS analysis; assay type: ADME, cell-free
[5] = Half life in dog liver microsomes preincubated for 5 mins followed by NADPH addition and measured for 45 mins by LC-MS analysis; assay type: ADME, Canis lupus familiaris, Microsome; conditions: time 50 min
[6] = target: Voltage-gated inwardly rectifying potassium channel KCNH2 (Homo sapiens, UniProt Q12809); assay: Inhibition of hERG; assay type: toxicity
Sequence of Voltage-gated inwardly rectifying potassium channel KCNH2 (Q12809 whole entry): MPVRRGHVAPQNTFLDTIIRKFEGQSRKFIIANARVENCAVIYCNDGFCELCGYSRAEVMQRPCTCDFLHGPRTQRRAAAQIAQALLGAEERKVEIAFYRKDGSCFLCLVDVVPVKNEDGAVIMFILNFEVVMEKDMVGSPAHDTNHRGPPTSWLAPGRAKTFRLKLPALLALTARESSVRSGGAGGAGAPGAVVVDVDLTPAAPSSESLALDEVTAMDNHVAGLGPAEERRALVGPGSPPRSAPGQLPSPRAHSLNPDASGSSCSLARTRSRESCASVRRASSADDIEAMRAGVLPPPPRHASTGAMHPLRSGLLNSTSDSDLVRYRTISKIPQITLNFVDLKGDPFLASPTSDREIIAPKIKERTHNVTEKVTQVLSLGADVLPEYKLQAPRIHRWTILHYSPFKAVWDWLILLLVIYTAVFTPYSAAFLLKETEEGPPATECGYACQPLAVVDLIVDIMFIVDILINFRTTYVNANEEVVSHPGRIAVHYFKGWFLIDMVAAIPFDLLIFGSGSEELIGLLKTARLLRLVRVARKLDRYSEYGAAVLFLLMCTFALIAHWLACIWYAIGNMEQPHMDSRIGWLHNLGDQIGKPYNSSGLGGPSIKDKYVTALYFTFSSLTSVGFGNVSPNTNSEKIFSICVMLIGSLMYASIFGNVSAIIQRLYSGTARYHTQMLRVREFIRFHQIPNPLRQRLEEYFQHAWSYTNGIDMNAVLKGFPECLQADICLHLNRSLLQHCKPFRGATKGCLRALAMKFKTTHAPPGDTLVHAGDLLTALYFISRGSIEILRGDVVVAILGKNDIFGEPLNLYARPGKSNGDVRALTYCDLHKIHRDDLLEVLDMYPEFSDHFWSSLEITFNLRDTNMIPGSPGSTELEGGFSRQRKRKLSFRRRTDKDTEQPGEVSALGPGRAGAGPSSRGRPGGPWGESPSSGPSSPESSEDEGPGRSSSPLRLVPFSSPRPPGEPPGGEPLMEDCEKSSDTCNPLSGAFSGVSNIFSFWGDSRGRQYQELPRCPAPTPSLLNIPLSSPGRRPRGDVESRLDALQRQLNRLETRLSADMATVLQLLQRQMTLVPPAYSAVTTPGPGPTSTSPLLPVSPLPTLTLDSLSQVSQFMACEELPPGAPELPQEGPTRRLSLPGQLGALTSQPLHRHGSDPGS

[7] = Stability in human plasma assessed as compound remaining by LC-MS/MS analysis; assay type: ADME, cell-free
[8] = target: von Hippel-Lindau disease tumor suppressor/Polymerase basic protein 2 (Influenza A virus (strain A/Puerto Rico/8/1934 H1N1)) (UniProt P40337+P03428); assay: PROTAC activity at Influenza A virus A/WSN/33(H1N1) flag tagged Polymerase basic protein 2/VHL (unknown origin) expressed in HEK293T cells assessed as degradation of PB2 expression at 0.1 to 10 uM incubated for 24 hrs by Western blotting analysis; assay type: cell-based; conditions: dose 0.1-10 µM
Sequence of von Hippel-Lindau disease tumor suppressor/Polymerase basic protein 2 (Influenza A virus (strain A/Puerto Rico/8/1934 H1N1)) (P03428 whole entry, looked up): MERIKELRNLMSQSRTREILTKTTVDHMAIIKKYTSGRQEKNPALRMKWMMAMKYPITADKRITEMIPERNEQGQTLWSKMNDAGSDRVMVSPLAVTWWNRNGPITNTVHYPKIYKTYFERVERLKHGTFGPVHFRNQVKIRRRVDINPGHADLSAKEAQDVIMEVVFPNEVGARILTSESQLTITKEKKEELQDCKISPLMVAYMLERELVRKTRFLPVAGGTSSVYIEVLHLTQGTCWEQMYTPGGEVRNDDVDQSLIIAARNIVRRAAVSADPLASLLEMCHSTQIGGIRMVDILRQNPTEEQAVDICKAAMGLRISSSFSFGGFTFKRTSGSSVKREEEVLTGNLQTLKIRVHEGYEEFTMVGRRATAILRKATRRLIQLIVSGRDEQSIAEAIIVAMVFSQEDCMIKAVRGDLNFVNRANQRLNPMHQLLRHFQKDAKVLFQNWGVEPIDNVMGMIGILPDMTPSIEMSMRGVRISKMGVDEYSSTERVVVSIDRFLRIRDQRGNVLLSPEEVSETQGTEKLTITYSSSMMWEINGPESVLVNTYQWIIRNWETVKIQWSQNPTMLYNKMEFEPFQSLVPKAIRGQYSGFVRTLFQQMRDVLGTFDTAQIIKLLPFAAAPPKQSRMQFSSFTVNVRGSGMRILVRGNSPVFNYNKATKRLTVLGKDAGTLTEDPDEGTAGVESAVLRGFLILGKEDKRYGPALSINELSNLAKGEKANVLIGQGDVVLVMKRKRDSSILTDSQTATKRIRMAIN
Sequence of von Hippel-Lindau disease tumor suppressor/Polymerase basic protein 2 (Influenza A virus (strain A/Puerto Rico/8/1934 H1N1)) (P40337 whole entry, looked up): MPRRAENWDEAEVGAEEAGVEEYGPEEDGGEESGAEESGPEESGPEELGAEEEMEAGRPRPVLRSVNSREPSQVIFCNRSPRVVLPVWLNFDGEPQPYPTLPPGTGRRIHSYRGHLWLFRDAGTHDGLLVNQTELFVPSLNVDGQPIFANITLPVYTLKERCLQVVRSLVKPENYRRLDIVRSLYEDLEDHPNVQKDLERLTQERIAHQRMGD

[9] = Hepatic clearance in mouse liver microsomes preincubated for 5 mins followed by NADPH addition and measured for 45 mins by LC-MS analysis; assay type: ADME, Microsome; conditions: time 50 min
[10] = target: T1, von Hippel-Lindau disease tumor suppressor/Polymerase acidic protein (Influenza A virus (A/Puerto Rico/8/1934(H1N1))) (UniProt P03433+P40337); assay: PROTAC activity at Influenza A virus A/WSN/33(H1N1) flag tagged Polymerase acidic protein/VHL (unknown origin) expressed in HEK293T cells assessed as degradation of PA expression at 10 uM incubated for 24 to 48 hrs by Western blotting analysis; assay type: cell-based; conditions: time 24-48 hrs
[11] = target: T2, von Hippel-Lindau disease tumor suppressor/Polymerase basic protein 1 (Influenza A virus (strain A/Puerto Rico/8/1934 H1N1)) (UniProt P03431+P40337); assay: PROTAC activity at Influenza A virus A/WSN/33(H1N1) flag tagged Polymerase basic protein 1/VHL (unknown origin) expressed in HEK293T cells assessed as degradation of PB1 expression at 0.1 to 10 uM incubated for 24 hrs by Western blotting analysis; assay type: cell-based; conditions: dose 0.1-10 µM
T2 sequence (P03431 whole entry, looked up): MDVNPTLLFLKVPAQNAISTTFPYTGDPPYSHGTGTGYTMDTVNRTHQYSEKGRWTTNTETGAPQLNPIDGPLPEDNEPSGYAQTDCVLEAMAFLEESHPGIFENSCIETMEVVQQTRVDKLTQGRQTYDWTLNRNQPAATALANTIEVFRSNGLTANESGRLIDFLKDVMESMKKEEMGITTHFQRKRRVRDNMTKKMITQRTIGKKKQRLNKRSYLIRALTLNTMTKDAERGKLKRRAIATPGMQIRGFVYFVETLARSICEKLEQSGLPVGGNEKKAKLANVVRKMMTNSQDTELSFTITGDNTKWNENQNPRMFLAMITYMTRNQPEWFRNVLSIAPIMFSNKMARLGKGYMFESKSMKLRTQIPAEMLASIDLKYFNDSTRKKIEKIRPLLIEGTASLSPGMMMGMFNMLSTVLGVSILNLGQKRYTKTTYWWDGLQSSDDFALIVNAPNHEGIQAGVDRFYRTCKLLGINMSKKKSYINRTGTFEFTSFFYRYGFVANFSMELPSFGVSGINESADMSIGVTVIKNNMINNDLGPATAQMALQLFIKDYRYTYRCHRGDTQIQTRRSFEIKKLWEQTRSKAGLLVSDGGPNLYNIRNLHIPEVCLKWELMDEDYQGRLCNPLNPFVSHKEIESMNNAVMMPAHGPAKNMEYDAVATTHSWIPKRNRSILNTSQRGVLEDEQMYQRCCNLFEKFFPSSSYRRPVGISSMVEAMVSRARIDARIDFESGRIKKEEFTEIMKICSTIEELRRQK
T2 sequence (P40337 whole entry, looked up): as the sequence (P40337 whole entry, looked up) above

[12] = target: T1, von Hippel-Lindau disease tumor suppressor/Polymerase acidic protein (Influenza A virus (A/Puerto Rico/8/1934(H1N1))); assay: PROTAC activity at Influenza A virus A/WSN/33(H1N1) flag tagged Polymerase acidic protein/VHL (unknown origin) expressed in HEK293T cells assessed as degradation of PA expression incubated for 2 to 10 hrs in presence of CHX by Western blotting analysis; assay type: cell-based; conditions: time 2-10 hrs
[13] = Stability in human plasma assessed as compound remaining measured after 120 mins by LC-MS/MS analysis; assay type: ADME, cell-free; conditions: read-out: Stability
enterovirus D68 = assay: Antiviral activity against enterovirus D68 infected in RD cells assessed as inhibition of viral replication incubated for 24 hrs by CCK-8 assay; assay type: functional, organism-based
[14] = target: T1, von Hippel-Lindau disease tumor suppressor/Polymerase acidic protein (Influenza A virus (A/Puerto Rico/8/1934(H1N1))); assay: PROTAC activity at Influenza A virus A/WSN/33(H1N1) flag tagged Polymerase acidic protein/VHL (unknown origin) expressed in HEK293T cells assessed as degradation of PA expression at 5 uM incubated for 24 hrs in presence of 3-methyladenine by Western blotting analysis; assay type: cell-based
Enterovirus [15] = assay: Antiviral activity against Enterovirus 71 infected in RD cells assessed as inhibition of viral replication incubated for 24 hrs by CCK-8 assay; assay type: functional, organism-based
[16] = target: T1, von Hippel-Lindau disease tumor suppressor/Polymerase acidic protein (Influenza A virus (A/Puerto Rico/8/1934(H1N1))); assay: PROTAC activity at Influenza A virus A/WSN/33(H1N1) flag tagged Polymerase acidic protein/VHL (unknown origin) expressed in HEK293T cells assessed as degradation of PA expression at 10 uM incubated for 8 hrs by Western blotting analysis; assay type: cell-based
[17] = Half life in mouse liver microsomes preincubated for 5 mins followed by NADPH addition and measured for 45 mins by LC-MS analysis; assay type: ADME, Microsome; conditions: time 50 min
Enterovirus [18] = assay: Antiviral activity against Enterovirus CV-B1 infected in RD cells assessed as inhibition of viral replication incubated for 24 hrs by CCK-8 assay; assay type: functional, organism-based
Influenza A virus [19] = assay: Anti-influenza activity against Influenza A virus A/PR/8/34 (H1N1) infected in MDCK cells assessed as inhibition of viral growth at 0.8 nM incubated for 48 hrs by luciferase assay relative to control; assay type: functional
[20] = Cytotoxicity against human HEK293T cells assessed as reduction in cell viability incubated for 48 hrs by CCK-8 assay; assay type: toxicity, cell-based, HEK-293T
Influenza A virus [21] = assay: Anti-influenza activity against Influenza A virus A/WSN/33(H1N1) infected in MDCK cells assessed as downregulation of nucleoprotein expression incubated for 24 hrs by Western blotting analysis; assay type: functional, organism-based
Influenza A virus [22] = assay: Anti-influenza activity against Influenza A virus A/WSN/33(H1N1) infected in MDCK cells assessed as downregulation of nucleoprotein expression at 100 nM incubated for 24 hrs by Western blotting analysis relative to control; assay type: functional
[23] = target: T1, von Hippel-Lindau disease tumor suppressor/Polymerase acidic protein (Influenza A virus (A/Puerto Rico/8/1934(H1N1))); assay: PROTAC activity at Influenza A virus A/WSN/33(H1N1) flag tagged Polymerase acidic protein/VHL (unknown origin) expressed in HEK293T cells assessed as degradation of PA expression at 5 uM incubated for 24 hrs in presence of dipeptide RA by Western blotting analysis; assay type: cell-based
[24] = target: T2, von Hippel-Lindau disease tumor suppressor/Polymerase basic protein 1 (Influenza A virus (strain A/Puerto Rico/8/1934 H1N1)); assay: PROTAC activity at Influenza A virus A/WSN/33(H1N1) flag tagged Polymerase basic protein 1/VHL (unknown origin) expressed in HEK293T cells assessed as degradation of PB1 expression at 1 ug/ml incubated for 24 hrs by Western blotting analysis; assay type: cell-based; conditions: dose 1.0 µg/ml
[25] = Stability in human plasma assessed as compound remaining measured after 5 mins by LC-MS/MS analysis; assay type: ADME, cell-free; conditions: read-out: Stability
[26] = Stability in human plasma assessed as compound remaining measured after 30 mins by LC-MS/MS analysis; assay type: ADME, cell-free; conditions: read-out: Stability

`CC(C)(C)OC(=O)NCCCC[C@H](NC(=O)OC(C)(C)C)C(=O)NCCCCCCCC(=O)Nc1ccc(NC(=S)NC(=O)c2ccc(C(C)(C)C)cc2)cc1` gave a selectivity ratio [1] greater than 6670, a CLint scaled [2] of 137 mL/min/kg and an EC50 (Influenza B virus) of 73 nM. The hepatic extraction ratio at 0.75 h [3] was 0.654, the half-life [4] was 246 min and the half-life [5] was 19.6 min. For the same compound, the “inhibition (INH)” value [6] was “Not Active”, the Stability [7] was 100% and the Activity [8] was “inactive”. The CLhep predicted [9] was 58.8 mL/min/kg, the Activity [10] was “Active” and the Activity [11] was “inactive”. The Activity [12] was “Active”, the remaining at 2 h [13] was 72% and the Activity (enterovirus D68) was “Active”. For the same compound, the Activity [14] was “inactive”, the Activity (Enterovirus [15]) was “Active” and the Activity [16] was “Active”. The half-life [17] was 32.1 min, the Activity (Enterovirus [18]) was “Active” and the inhibition at 0.0008 µM (Influenza A virus [19]) was 82%. For the same compound, the CC50 at 48 h [20] was greater than 100000 nM, the Activity (Influenza A virus [21]) was “Dose-Dependent Effect” and the Activity (Influenza A virus [22]) was 35%. The Activity [23] was “inactive”, the Activity [24] was “inactive” and the remaining at 5 min [25] was 96.8%. For the same compound, the remaining at 0.5 h [26] was 108%.
